Tests used:
[1] = biological target: T1, ROCK-II(h) (Homo sapiens, UniProt O75116); test: KinaseProfiler panel: ROCK-II(h); type: biochemical; details: residual activity, 5 μM inhibitor, Km ATP
T1 construct: purchased Merck-Millipore (KinaseProfiler panel service)
Experimental: (§1) Kinase selectivity was performed on a panel of 58 recombinant protein kinases. The assays were performed in the presence of 5 μM inhibitor at the respective Km ATP for each kinase, using the KinaseProfiler panel service (Merck-Millipore). Residual activity measured in the presence of […] inhibitor is expressed as the percent of activity determined in the absence of inhibitor.

[2] = test system: Phospho-Ser3-Cofilin/Total Cofilin; test: Western blot of cellular cofilin phosphorylation status, MV4-11 (II.4); type: cell-based; details: Homo sapiens; MV4-11 cells; 2 h treatment
Experimental: MV4-11 cell line was originally purchased from the American Type Culture Collection (ATCC). MV4-11 cells are cultured in RPMI 1640 10% (v/v) FBS supplemented with 100 U/mL^−1 penicillin, 0.1 mg·mL^−1 streptomycin (PAN Biotech P06-07100) and 2 mM Glutamine (Sigma-Aldrich 59202C). Cells were maintained at 37° C. with 5% CO2.
In a 6 wells plate (Falcon 353046), 2·10^6 cells in 1.5 mL medium are treated for 2 h with compounds. Cells are then collected and cell lysis is performed at 4° C. using RIPA buffer supplemented with protease inhibitors cocktail (Sigma-Aldrich P8340) and phosphatase inhibitors cocktail (Sigma-Aldrich P5726). Following centrifugation 30 min 15000 g 4° C., supernatants are mixed with Laemmli buffer and denaturation is performed by heating 5 min 95° C. 10 μL of samples are subjected to electrophoresis on 15% SDS-PAGE. After electro-transfer (Mini Transblot, Bio-Rad), the PVDF membrane (Merck-Millipore Immobilon P IPVH00010) is blocked with Tris Buffered Saline, pH 7.4 (TBS) with 0.1% Tween 20 and 5% BSA for 1 h RT under agitation. The membrane was rinsed 3 times 10 min RT under agitation with TBS, 0.1% Tween-20 (TBST) and then 1 h RT with anti-phospho-Ser3-cofilin (Cell Signaling Technology #3313, 1/1000 dilution) antibody or anti-cofilin (Cell Signaling Technology #3312, 1/1000 dilution) diluted in TBS, 0.1% Tween 20 and 1% BSA. The membrane is then rinsed 3 times 10 min RT under agitation in TBST and incubated for 1 hour with anti-rabbit secondary antibody, horseradish peroxidase conjugated (Jackson Immunoresearch #711-036-152) under agitation at room temperature. After three washes 10 min RT in TBST, the detection of total or phosphorylated cofilin was performed using chemiluminescence kit ECL™ Plus (GE Healthcare RPN2132). For each concentration of compound, ratio between phosphorylated cofilin and total cofilin is determined. This ratio is then expressed as percentage of control ratio (i.e ratio from DMSO treated cells). IC50 is then determined.

[3] = biological target: T2, GSK3β(h) (Homo sapiens, UniProt P49841); test: KinaseProfiler panel: GSK3β(h); type: biochemical; details: residual activity, 5 μM inhibitor, Km ATP
T2 construct: purchased Merck-Millipore (KinaseProfiler panel service)
Experimental: as §1

[4] = biological target: T3, JAK2(h) (Homo sapiens, UniProt O60674); test: KinaseProfiler panel: JAK2(h); type: biochemical; details: residual activity, 5 μM inhibitor, Km ATP
T3 construct: purchased Merck-Millipore (KinaseProfiler panel service)
Experimental: as §1

[5] = biological target: T4, MKK4(m) (Mus musculus, UniProt P47809); test: KinaseProfiler panel: MKK4(m); type: biochemical; details: residual activity, 5 μM inhibitor, Km ATP
T4 construct: purchased Merck-Millipore (KinaseProfiler panel service)
Experimental: as §1

[6] = biological target: T5, Aurora-B(h) (Homo sapiens, UniProt Q96GD4); test: KinaseProfiler panel: Aurora-B(h); type: biochemical; details: residual activity, 5 μM inhibitor, Km ATP
T5 construct: purchased Merck-Millipore (KinaseProfiler panel service)
Experimental: as §1

[7] = biological target: T6, TrkC(h) (Homo sapiens, UniProt Q16288); test: KinaseProfiler panel: TrkC(h); type: biochemical; details: residual activity, 5 μM inhibitor, Km ATP
T6 construct: purchased Merck-Millipore (KinaseProfiler panel service)
Experimental: as §1

[8] = test system: MLCK(h); test: KinaseProfiler panel: MLCK(h); type: biochemical, human; details: residual activity, 5 μM inhibitor, Km ATP
Experimental: as §1

[9] = biological target: B-Raf(h) (Homo sapiens, UniProt P15056); test: KinaseProfiler panel: B-Raf(h); type: biochemical; design: purchased Merck-Millipore (KinaseProfiler panel service); details: residual activity, 5 μM inhibitor, Km ATP
Experimental: as §1

[10] = biological target: T7, ALK(h) (Homo sapiens, UniProt Q9UM73); test: KinaseProfiler panel: ALK(h); type: biochemical; details: residual activity, 5 μM inhibitor, Km ATP
T7 construct: purchased Merck-Millipore (KinaseProfiler panel service)
Experimental: as §1

[11] = biological target: T8, PAK6(h) (Homo sapiens, UniProt Q9NQU5); test: KinaseProfiler panel: PAK6(h); type: biochemical; details: residual activity, 5 μM inhibitor, Km ATP
T8 construct: purchased Merck-Millipore (KinaseProfiler panel service)
Experimental: as §1

[12] = biological target: T9, PKBα(h) (Homo sapiens, UniProt P31749); test: KinaseProfiler panel: PKBα(h); type: biochemical; details: residual activity, 5 μM inhibitor, Km ATP
T9 construct: purchased Merck-Millipore (KinaseProfiler panel service)
Experimental: as §1

[13] = biological target: T10, Abl(h) (Homo sapiens, UniProt P00519); test: KinaseProfiler panel: Abl(h); type: biochemical; details: residual activity, 5 μM inhibitor, Km ATP
T10 construct: purchased Merck-Millipore (KinaseProfiler panel service)
Experimental: as §1

[14] = biological target: T11, LKB1(h) (Homo sapiens, UniProt Q15831); test: KinaseProfiler panel: LKB1(h); type: biochemical; details: residual activity, 5 μM inhibitor, Km ATP
T11 construct: purchased Merck-Millipore (KinaseProfiler panel service)
Experimental: as §1

[15] = test system: P-MEK/Total MEK; test: Western blot MEK1 phosphorylation, Kasumi-1; type: cell-based; details: Kasumi-1 cells
Experimental: Cells were maintained at 37° C. with 5% CO2.
In a 6 wells plate (Falcon 353046), 2·10^6 cells in 1.5 mL medium are treated for 2 h with compounds. Cells are then collected and cell lysis is performed at 4° C. using RIPA buffer supplemented with protease inhibitors cocktail (Sigma-Aldrich P8340) and phosphatase inhibitors cocktail (Sigma-Aldrich P5726). Following centrifugation 30 min 15000 g 4° C., supernatants are mixed with Laemmli buffer and denaturation is performed by heating 5 min 95° C. 10 μL of samples are subjected to electrophoresis on 15% SDS-PAGE. After electro-transfer (Mini Transblot, Bio-Rad), the PVDF membrane (Merck-Millipore Immobilon P IPVH00010) is blocked with Tris Buffered Saline, pH 7.4 (TBS) with 0.1% Tween 20 and 5% BSA for 1 h at room temperature under agitation. The membrane was rinsed 3 times 10 min at room temperature under agitation with TBS, 0.1% Tween-20 (TBST) and then 1 h at room temperature with anti-phospho-Ser218/222-MEK1 (Merck-Millipore 07-461, 1/1000 dilution) antibody or anti-MEK1 (Merck-Millipore 07-641, 1/1000 dilution) diluted in TBS, 0.1% Tween 20 and 1% BSA. The membrane is then rinsed 3 times 10 min RT under agitation in TBST and incubated for 1 h with anti-rabbit secondary antibody, horseradish peroxidase conjugated (Jackson Immunoresearch #711-036-152) under agitation at room temperature. After three washes 10 min at room temperature in TBST, the detection of total or phosphorylated cofilin was performed using chemiluminescence kit ECL™ Plus (GE Healthcare RPN2132). For each concentration of compound, ratio between phosphorylated cofilin and total cofilin is determined. This ratio is then expressed as percentage of control ratio (i.e., ratio from DMSO treated cells). IC50 P-MEK/Total MEK is then determined.
Selectivity ratios are calculated by dividing the IC50 P-MEK/Total MEK value (μM) by the IC50 Phospho-Ser3-Cofilin/Total Cofilin value (μM).

T8 sequence (Q9NQU5 whole entry): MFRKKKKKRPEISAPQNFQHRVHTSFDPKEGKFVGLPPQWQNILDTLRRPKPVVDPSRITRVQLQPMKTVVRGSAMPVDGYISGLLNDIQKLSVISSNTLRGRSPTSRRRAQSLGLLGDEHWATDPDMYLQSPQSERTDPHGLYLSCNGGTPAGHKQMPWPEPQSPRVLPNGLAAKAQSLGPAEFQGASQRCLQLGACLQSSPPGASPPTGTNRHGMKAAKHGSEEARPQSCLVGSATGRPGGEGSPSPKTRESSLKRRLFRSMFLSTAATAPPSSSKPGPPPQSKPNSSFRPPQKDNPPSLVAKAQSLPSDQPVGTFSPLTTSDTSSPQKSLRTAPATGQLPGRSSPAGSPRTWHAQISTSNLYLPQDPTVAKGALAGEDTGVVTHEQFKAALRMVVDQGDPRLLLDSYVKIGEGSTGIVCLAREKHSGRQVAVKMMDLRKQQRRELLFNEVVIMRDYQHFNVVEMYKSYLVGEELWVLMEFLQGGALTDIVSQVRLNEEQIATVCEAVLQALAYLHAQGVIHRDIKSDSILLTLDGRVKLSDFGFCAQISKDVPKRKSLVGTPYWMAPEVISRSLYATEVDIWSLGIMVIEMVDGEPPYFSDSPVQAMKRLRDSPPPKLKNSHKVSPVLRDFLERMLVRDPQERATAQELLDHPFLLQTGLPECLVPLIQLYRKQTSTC
T3 sequence (O60674 whole entry): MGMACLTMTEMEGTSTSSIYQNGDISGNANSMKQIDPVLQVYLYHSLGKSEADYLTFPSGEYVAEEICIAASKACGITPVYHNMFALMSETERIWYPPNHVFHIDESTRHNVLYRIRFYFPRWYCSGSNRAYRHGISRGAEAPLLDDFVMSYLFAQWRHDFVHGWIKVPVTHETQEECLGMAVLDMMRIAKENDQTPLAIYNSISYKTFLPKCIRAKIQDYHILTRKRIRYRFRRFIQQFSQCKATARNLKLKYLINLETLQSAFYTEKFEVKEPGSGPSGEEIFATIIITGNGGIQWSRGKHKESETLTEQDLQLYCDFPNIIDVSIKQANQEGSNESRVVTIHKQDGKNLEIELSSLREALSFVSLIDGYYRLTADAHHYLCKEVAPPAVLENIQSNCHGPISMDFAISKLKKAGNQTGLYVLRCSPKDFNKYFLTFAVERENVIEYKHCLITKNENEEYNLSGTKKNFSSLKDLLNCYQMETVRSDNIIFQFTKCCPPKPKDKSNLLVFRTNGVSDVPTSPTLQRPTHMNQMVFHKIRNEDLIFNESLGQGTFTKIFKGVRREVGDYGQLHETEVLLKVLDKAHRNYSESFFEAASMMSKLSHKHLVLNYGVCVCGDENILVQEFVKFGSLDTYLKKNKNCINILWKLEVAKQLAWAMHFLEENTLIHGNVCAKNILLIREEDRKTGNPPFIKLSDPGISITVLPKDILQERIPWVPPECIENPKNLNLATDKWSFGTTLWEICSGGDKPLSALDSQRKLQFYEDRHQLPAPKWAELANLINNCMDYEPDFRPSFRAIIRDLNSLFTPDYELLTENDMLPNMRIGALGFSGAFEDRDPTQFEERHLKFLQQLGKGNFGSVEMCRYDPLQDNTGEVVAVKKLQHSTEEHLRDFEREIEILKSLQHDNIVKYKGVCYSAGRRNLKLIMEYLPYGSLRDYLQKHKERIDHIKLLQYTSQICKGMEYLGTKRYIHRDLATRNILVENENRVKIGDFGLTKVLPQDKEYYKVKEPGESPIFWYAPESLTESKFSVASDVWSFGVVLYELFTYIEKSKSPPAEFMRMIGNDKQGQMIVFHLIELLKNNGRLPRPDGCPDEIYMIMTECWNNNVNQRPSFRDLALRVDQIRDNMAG
T7 sequence (Q9UM73 19-1620): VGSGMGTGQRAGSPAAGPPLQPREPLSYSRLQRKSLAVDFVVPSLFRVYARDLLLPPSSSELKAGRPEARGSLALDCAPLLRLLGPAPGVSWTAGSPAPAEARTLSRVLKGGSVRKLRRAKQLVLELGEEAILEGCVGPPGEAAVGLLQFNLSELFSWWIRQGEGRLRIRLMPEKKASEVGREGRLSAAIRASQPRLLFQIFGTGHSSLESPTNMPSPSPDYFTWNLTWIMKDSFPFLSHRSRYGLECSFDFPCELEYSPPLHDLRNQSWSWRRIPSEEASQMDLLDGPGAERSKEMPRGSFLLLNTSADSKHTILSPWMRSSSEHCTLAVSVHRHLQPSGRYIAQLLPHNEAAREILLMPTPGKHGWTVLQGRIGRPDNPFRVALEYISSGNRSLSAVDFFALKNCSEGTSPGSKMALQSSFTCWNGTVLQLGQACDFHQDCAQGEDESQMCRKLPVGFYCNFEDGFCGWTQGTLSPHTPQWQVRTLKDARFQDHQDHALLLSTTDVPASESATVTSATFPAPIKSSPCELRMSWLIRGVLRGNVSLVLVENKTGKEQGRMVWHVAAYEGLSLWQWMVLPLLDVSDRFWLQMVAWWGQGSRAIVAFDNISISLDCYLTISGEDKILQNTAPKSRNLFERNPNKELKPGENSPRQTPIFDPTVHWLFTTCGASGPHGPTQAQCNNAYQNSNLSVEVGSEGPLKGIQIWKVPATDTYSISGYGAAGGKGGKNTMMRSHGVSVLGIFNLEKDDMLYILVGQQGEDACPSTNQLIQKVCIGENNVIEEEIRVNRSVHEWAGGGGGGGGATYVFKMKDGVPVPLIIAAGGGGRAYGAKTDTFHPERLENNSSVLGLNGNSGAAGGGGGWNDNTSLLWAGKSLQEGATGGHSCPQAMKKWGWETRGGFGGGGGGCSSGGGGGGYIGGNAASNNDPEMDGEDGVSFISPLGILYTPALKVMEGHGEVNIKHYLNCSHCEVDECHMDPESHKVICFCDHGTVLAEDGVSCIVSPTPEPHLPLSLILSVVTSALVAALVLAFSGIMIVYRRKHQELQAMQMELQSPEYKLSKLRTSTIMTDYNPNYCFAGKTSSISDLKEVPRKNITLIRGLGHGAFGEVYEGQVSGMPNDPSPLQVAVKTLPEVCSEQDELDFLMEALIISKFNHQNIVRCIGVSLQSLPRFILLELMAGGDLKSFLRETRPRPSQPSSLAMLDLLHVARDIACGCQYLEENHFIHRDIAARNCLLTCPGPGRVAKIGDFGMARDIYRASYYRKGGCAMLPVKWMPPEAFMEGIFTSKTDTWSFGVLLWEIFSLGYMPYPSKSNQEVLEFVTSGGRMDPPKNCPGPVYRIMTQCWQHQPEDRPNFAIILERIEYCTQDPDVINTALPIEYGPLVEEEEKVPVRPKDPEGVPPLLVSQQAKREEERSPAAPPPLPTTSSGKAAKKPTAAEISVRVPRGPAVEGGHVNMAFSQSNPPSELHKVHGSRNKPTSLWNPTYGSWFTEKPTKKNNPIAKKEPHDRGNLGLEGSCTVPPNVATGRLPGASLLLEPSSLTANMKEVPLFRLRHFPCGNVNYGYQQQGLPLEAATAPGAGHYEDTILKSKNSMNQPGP
T4 sequence (P47809 whole entry): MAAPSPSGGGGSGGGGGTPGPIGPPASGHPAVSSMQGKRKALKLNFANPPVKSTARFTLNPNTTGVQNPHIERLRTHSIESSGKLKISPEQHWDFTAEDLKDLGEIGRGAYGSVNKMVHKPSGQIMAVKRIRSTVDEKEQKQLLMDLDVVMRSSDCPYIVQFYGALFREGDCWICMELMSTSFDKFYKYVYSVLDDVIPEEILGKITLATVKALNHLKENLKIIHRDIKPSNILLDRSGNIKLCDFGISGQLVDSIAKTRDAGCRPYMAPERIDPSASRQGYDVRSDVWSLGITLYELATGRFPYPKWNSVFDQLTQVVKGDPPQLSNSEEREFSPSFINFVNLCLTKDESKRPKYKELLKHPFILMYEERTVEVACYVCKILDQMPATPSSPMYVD
Sequence of B-Raf(h) (P15056 whole entry): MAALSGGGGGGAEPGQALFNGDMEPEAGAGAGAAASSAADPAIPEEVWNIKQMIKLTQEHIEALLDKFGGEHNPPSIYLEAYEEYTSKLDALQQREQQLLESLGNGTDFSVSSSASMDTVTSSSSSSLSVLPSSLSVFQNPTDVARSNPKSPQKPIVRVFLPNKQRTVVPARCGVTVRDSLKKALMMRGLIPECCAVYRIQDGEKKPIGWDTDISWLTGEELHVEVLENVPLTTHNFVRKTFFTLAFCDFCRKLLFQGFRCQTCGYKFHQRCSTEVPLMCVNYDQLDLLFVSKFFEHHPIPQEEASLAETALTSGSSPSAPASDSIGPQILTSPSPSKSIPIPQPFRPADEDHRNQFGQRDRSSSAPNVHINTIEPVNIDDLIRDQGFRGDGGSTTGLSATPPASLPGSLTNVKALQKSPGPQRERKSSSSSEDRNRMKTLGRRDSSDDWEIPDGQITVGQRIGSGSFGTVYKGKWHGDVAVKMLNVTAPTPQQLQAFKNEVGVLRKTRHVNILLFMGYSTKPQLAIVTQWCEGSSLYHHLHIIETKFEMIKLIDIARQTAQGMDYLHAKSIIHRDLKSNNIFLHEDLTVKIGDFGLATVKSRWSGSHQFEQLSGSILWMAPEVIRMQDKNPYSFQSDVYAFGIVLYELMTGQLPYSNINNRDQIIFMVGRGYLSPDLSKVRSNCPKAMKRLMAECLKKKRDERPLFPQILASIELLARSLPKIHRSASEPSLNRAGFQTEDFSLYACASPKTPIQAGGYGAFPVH
T9 sequence (P31749 whole entry): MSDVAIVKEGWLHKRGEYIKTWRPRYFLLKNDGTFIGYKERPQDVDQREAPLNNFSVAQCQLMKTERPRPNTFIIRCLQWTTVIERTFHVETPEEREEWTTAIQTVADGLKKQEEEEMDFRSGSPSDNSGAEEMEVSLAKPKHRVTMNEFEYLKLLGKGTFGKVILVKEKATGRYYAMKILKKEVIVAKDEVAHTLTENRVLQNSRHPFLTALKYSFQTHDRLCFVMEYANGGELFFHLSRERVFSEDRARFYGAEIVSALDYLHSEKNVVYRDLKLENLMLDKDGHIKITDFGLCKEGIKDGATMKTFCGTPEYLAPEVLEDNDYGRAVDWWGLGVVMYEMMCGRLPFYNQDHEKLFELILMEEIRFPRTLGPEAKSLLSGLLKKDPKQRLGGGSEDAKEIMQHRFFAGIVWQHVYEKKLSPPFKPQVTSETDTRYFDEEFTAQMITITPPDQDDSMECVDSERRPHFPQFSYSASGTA

| SMILES | activity at 5 µM [1] [%] | IC50 [2] [nM] | activity at 5 µM [3] [%] | activity at 5 µM [4] [%] | activity at 5 µM [5] [%] | activity at 5 µM [6] [%] | activity at 5 µM [7] [%] | % activity [8] | activity at 5 µM [9] [%] | activity at 5 µM [10] [%] | activity at 5 µM [11] [%] | activity at 5 µM [12] [%] | activity at 5 µM [13] [%] | activity at 5 µM [14] [%] | IC50 ([15]; Homo sapiens, 2 h, read-out: IC50 P-MEK/Total MEK) [nM] | Selectivity ratio ([15]; IC50 P-MEK/Total MEK divided by IC50 Phospho-Ser3-Cofilin/Total Cofilin) |
| --- | --- | --- | --- | --- | --- | --- | --- | --- | --- | --- | --- | --- | --- | --- | --- | --- |
| CC(C)(C)c1nc(-c2cccc(NS(=O)(=O)c3c(F)cccc3F)c2F)c(-c2ccnc(Nc3ccccc3)n2)s1 [Compound 1, N-(3-(2-(tert-butyl)-5-(2-(phenylamino)pyrimidin-4-yl)thiazol-4-yl)-2-fluorophenyl)-2,6-difluorobenzenesulfonamide] | ≥ 50 | < 200 | ≥ 50 | ≥ 50 | ≥ 50 | 10 to 50 | ≥ 50 | − (50%≤residual activity) | 3 to 10 | ≥ 50 | ≥ 50 | ≥ 50 | ≥ 50 | ≥ 50 | – | – |
| O=S(=O)(Nc1cccc(-c2nc(CCO)sc2-c2ccnc(Nc3ccccc3)n2)c1F)c1c(F)cccc1F [8 (Na)] | – | – | – | – | – | – | – | – | – | – | – | – | – | – | > 1000 | 10 |
